In paper PMC7910394, “Design of PSMA ligands with modifications at the inhibitor part: an approach to reduce the salivary gland uptake of radiolabeled PSMA inhibitors?” (EJNMMI Radiopharmacy and Chemistry, 2021):
Like-named read-outs stand apart in the source and are kept apart here.

Test system: LNCaP tumor xenograft-bearing CB17-SCID mice
Format: in vivo, mouse
Method: All animal experiments were conducted in accordance with general animal welfare regulations in Germany (German animal protection act, as amended on 18.05.2018, Art. 141 G v. 29.3.2017 I 626, approval no. 55.2–1-54-2532-71-13) and the institutional guidelines for the care and use of animals. To establish tumor xenografts, LNCaP cells (approx. 10^7 cells) were suspended in 200 μL of a 1/1 mixture (v/v) of DMEM F-12 and Matrigel (BD Biosciences, Heidelberg, Germany) and inoculated subcutaneously onto the right shoulder of 6–8 weeks old CB17-SCID mice (Charles River Laboratories, Sulzfeld, Germany). Mice were used for experiments when tumor size reached 5–10 mm in diameter (3–6 weeks after inoculation).
Approximately 2–10 MBq (0.20 nmol) of the ^177Lu-labeled PSMA inhibitors were injected into the tail vein of LNCaP tumor xenograft-bearing male CB17-SCID mice (n = 3 to 5). They were sacrificed by CO2 asphyxiation and cervical dislocation either 1 h or 24 h post injection (p.i.) (n = 3 for [^177Lu]Lu-5, -6 & -7 (proinhibitor compounds I-III), n = 4 for [^177Lu]Lu-10 (alkyne), n = 5 for [^177Lu]Lu-3 (carbamate I) and n = 5 for [^177Lu]Lu-11 (tetrazole)). Selected organs were removed, weighed and organ activities measured in a γ-counter.
Approximately 2 - 10 MBq (0.20 nmol) of the ^177Lu-labeled PSMA inhibitors were injected into the tail vein of LNCaP tumor xenograft-bearing male CB17-SCID mice (n = 3 to 5). They were sacrificed by CO2 asphyxiation and cervical dislocation either 1 h or 24 h post injection (p.i.) (n = 3 for [^177Lu]Lu-5, -6 & -7 (proinhibitor compounds I-III), n = 4 for [^177Lu]Lu-10 (alkyne) and n = 5 for [^177Lu]Lu-3 (carbamate I) and n = 5 for [^177Lu]Lu-11 (tetrazole)). Selected organs were removed, weighed and organ activities measured in a γ-counter.

CC(C)(C)[Si](F)(c1ccc(C(=O)NC[C@@H](NC(=O)CN2CCN(CC(=O)[O-])CCN(CC(=O)[O-])CCN(CC(=O)[O-])CC2)C(=O)N[C@H](CCCCNC(=O)CCC(=O)NCCC[C@@H](NC(=O)CC[C@H](NC(=O)N[C@@H](CCc2nnn[nH]2)C(=O)O)C(=O)O)C(=O)O)C(=O)O)cc1)C(C)(C)C.[Lu+3] [^natLu/[^177Lu]Lu-11]
Biodistribution Adrenals (1 h p.i.): 0.61 ± 0.42 % ID/g | Biodistribution Blood (1 h p.i.): 1.09 ± 0.30 % ID/g | Biodistribution Bone (1 h p.i.): 0.47 ± 0.44 % ID/g | Biodistribution Heart (1 h p.i.): 0.41 ± 0.04 % ID/g | Biodistribution Intestine (1 h p.i.): 0.67 ± 0.21 % ID/g | Biodistribution Kidneys (1 h p.i.): 33.2 ± 3.8 % ID/g | Biodistribution Liver (1 h p.i.): 0.74 ± 0.17 % ID/g | Biodistribution Lung (1 h p.i.): 1.23 ± 0.27 % ID/g | Biodistribution Muscle (1 h p.i.): 0.15 ± 0.03 % ID/g | Biodistribution Pancreas (1 h p.i.): 0.33 ± 0.11 % ID/g | Biodistribution Parotid gland (1 h p.i.): 0.56 ± 0.08 % ID/g | Biodistribution Spleen (1 h p.i.): 1.04 ± 0.15 % ID/g | Biodistribution Stomach (1 h p.i.): 1.55 ± 1.67 % ID/g | Biodistribution Submandibular gland (1 h p.i.): 0.40 ± 0.05 % ID/g | Biodistribution Tumor (1 h p.i.): 3.40 ± 0.63 % ID/g | Ratio Tumor-to-blood (1 h p.i.): 3.46 ± 1.62 | Ratio Tumor-to-kidney (1 h p.i.): 0.10 ± 0.03 | Ratio Tumor-to-liver (1 h p.i.): 5.00 ± 2.11 | Ratio Tumor-to-muscle (1 h p.i.): 24.9 ± 10.2 | Ratio Tumor-to-parotid gland (1 h p.i.): 6.20 ± 1.74 | Ratio Tumor-to-submandibular gland (1 h p.i.): 8.74 ± 2.52 | Biodistribution Adrenals (24 h p.i.): 0.17 ± 0.19 % ID/g | Biodistribution Bone (24 h p.i.): 0.18 ± 0.04 % ID/g | Biodistribution Heart (24 h p.i.): 0.02 ± 0.00 % ID/g | Biodistribution Intestine (24 h p.i.): 0.52 ± 0.68 % ID/g | Biodistribution Kidneys (24 h p.i.): 3.23 ± 0.77 % ID/g | Biodistribution Liver (24 h p.i.): 0.18 ± 0.04 % ID/g | Biodistribution Lung (24 h p.i.): 0.05 ± 0.02 % ID/g | Biodistribution Muscle (24 h p.i.): 0.02 ± 0.01 % ID/g | Biodistribution Pancreas (24 h p.i.): 0.02 ± 0.00 % ID/g | Biodistribution Parotid gland (24 h p.i.): 0.06 ± 0.02 % ID/g | Biodistribution Spleen (24 h p.i.): 0.11 ± 0.03 % ID/g | Biodistribution Stomach (24 h p.i.): 0.12 ± 0.11 % ID/g | Biodistribution Submandibular gland (24 h p.i.): 0.04 ± 0.01 % ID/g | Biodistribution Tumor (24 h p.i.): 0.68 ± 0.16 % ID/g | Ratio Tumor-to-blood (24 h p.i.): 227 ± 50 | Ratio Tumor-to-kidney (24 h p.i.): 0.22 ± 0.06 | Ratio Tumor-to-liver (24 h p.i.): 3.74 ± 0.50 | Ratio Tumor-to-muscle (24 h p.i.): 55.9 ± 24.3 | Ratio Tumor-to-parotid gland (24 h p.i.): 12.2 ± 1.7 | Ratio Tumor-to-submandibular gland (24 h p.i.): 16.9 ± 2.2 | factor by which tumor-to-submandibular gland and tumor-to-parotid gland ratios are lower than for [177Lu]Lu-1 (24 h p.i.): 8
